Data on two compounds can be found in US20100137315A1, “Sphingosine Kinase Inhibitors and Methods of Their Use” (APOGEE BIOTECHNOLOGY CORPORATION, priority 2005, published 2010).

One experiment has as its system C57BL/6 mice. As to the kind of experiment: Acute DSS-colitis model of IBD. Format: in vivo, mouse. The conditions noted are these: 2% DSS, 50 mg/kg oral daily. As to the method:
FIG. 4. Effects of Compound 8 and Dipentum on the DAI in the acute DSS-colitis model. C57BL/6 mice were treated for 6 days as follows: normal drinking water and daily oral administration of PEG (No DSS), 2% DSS in the drinking water and daily oral administration of PEG (DSS alone); 2% DSS in the drinking water and daily oral administration of 50 mg/kg Compound 8 in PEG (DSS+Compound 8), or 2% DSS in the drinking water and daily oral administration of 50 mg/kg Dipentum in PEG (DSS+Dipentum). On the indicated day, the Disease Activity Index was calculated for each group. Values represent the mean±sd for 5-6 mice per group.
FIG. 5. Effects of Compound 8 and Dipentum on colon length in the acute DSS-colitis model. Mice from the experiment described in FIG. 4 were sacrificed on Day 6, and the colon was harvested from each animal and measured. Data represent the mean±sd colon length.
FIG. 6. Effects of Compound 8 and Dipentum on neutrophil infiltration into the colon in the acute DSS-colitis model. Myeloperoxidase (MPO) activity from the colons of the animals described in FIG. 4 was measured. Values the mean±sd MPO activity in units per gram of tissue.
FIG. 7. Effects of Compound 8 and Dipentum on colonic cytokine levels in the acute DSS-colitis model. Colon samples from mice described in FIG. 4 were extracted and assayed for the levels of the indicated cytokines Values represent the mean±sd amount of each cytokine in 4-5 samples per group.
Experiments were conducted with SK inhibitors using the dextran sulfate sodium (DSS) model of IBD. In these experiments, male C57BL/6 mice were provided with standard rodent diet and water ad libitum. After their acclimation, the animals were randomly divided into groups of 5 or 6 for DSS (40,000 MW from ICN Biomedicals, Inc., Aurora, Ohio)— and drug-treatment. […] The body weight of each animal was measured each day, and the Disease Activity Index (DAI) was scored for each animal on Days 4-6. On Day 6, the animals were sacrificed by cervical dislocation and the entire colon was removed and measured to the nearest 0.1 cm.

For a further experiment, the target named is EFGR (Homo sapiens, UniProt P00533). As to the kind of experiment: Kinase selectivity panel. Format: biochemical. The following applies: read-out: percent of control activity of EFGR. On the procedure:
(§1) A common problem with previous attempts to develop protein kinase inhibitors is the lack of selectivity toward the target kinase since the majority of these compounds interact with nucleotide-binding domains that are highly conserved among kinases. To determine if compound of this invention are non-selective kinase inhibitors, the effects of the SK inhibitor, Compound 73, on a diverse panel of 20 purified kinases was determined. The compound was tested at a single concentration of 50 μM.

A further experiment addresses Abl (Homo sapiens, UniProt P00519). The experiment in a line: Kinase selectivity panel. The experiment is classed as biochemical. The conditions noted are these: read-out: percent of control activity of Abl. On the procedure:
as §1

A further experiment addresses Ca^2+/calmodulin PK IV (Homo sapiens, UniProt Q16566). The experiment in a line: Kinase selectivity panel. The following applies: read-out: percent of control activity of Ca^2+/calmodulin PK IV. Format: biochemical. As to the method:
as §1

The target in a further experiment is CDK2/cyclinE (Homo sapiens, UniProt P24941). As to the kind of experiment: Kinase selectivity panel. The experiment is classed as biochemical. The following applies: read-out: percent of control activity of CDK2/cyclinE. On the procedure: as §1
For another experiment, the system named is MEK kinase 1. As to the kind of experiment: Kinase selectivity panel. Format: biochemical. The following applies: 50 μM. As to the method:
as §1

A further experiment concerns the target IKKα (Homo sapiens, UniProt O15111). The experiment in a line: Kinase selectivity panel. The experiment is classed as biochemical. The conditions noted are these: read-out: percent of control activity of IKKα. As to the method: as §1
The next experiment addresses Aurora-A (Homo sapiens, UniProt O14965). The experiment in a line: Kinase selectivity panel. The experiment is classed as biochemical. The conditions noted are these: read-out: percent of control activity of Aurora-A. On the procedure:
as §1

In the next experiment the target is P38 MAP kinase 2 (Homo sapiens, UniProt Q15759). The experiment in a line: Kinase selectivity panel. The experiment is classed as biochemical. The following applies: read-out: percent of control activity of P38 MAP kinase 2. On the procedure:
as §1

The next experiment deals with Fyn (Homo sapiens, UniProt P06241). The experiment in a line: Kinase selectivity panel. The experiment is classed as biochemical. The conditions noted are these: read-out: percent of control activity of Fyn. On the procedure:
as §1

The target in the next experiment is PKBγ (Homo sapiens, UniProt Q9Y243). As to the kind of experiment: Kinase selectivity panel. Format: biochemical. The conditions noted are these: read-out: percent of control activity of PKBγ. On the procedure: as §1
Another experiment has as its target CDK1/cyclinB (Homo sapiens, UniProt P06493). As to the kind of experiment: Kinase selectivity panel. Format: biochemical. The conditions noted are these: read-out: percent of control activity of CDK1/cyclinB. On the procedure: as §1
The next experiment deals with CHK1 (Homo sapiens, UniProt O14757). As to the kind of experiment: Kinase selectivity panel. The experiment is classed as biochemical. The conditions noted are these: read-out: percent of control activity of CHK1. As to the method:
as §1

Another experiment addresses cSrc (Homo sapiens, UniProt P12931). The experiment in a line: Kinase selectivity panel. The following applies: read-out: percent of control activity of cSrc. The experiment is classed as biochemical. As to the method: as §1
The target in the next experiment is cRaf (Homo sapiens, UniProt P04049). The experiment in a line: Kinase selectivity panel. Format: biochemical. The conditions noted are these: read-out: percent of control activity of cRaf. As to the method:
as §1

Another experiment deals with Protein kinase C α (Homo sapiens, UniProt P17252). The experiment in a line: Kinase selectivity panel. Format: biochemical. The conditions noted are these: read-out: percent of control activity of Protein kinase C α. On the procedure:
as §1

A further experiment concerns the target Protein kinase C ε (Homo sapiens, UniProt Q02156). As to the kind of experiment: Kinase selectivity panel. The experiment is classed as biochemical. The following applies: read-out: percent of control activity of Protein kinase C ε. As to the method:
as §1

Another experiment has as its target PKBα (Homo sapiens, UniProt P31749). The experiment in a line: Kinase selectivity panel. The conditions noted are these: read-out: percent of control activity of PKBα. Format: biochemical. On the procedure: as §1
The target of another experiment is PDK1 (Homo sapiens, UniProt O15530). As to the kind of experiment: Kinase selectivity panel. The conditions noted are these: read-out: percent of control activity of PDK1. The experiment is classed as biochemical. As to the method:
as §1

Another experiment has as its target PKA (Homo sapiens, UniProt P17612). As to the kind of experiment: Kinase selectivity panel. Format: biochemical. The conditions noted are these: read-out: percent of control activity of PKA. As to the method:
as §1

Another experiment concerns the target P38 MAP kinase 1 (Homo sapiens, UniProt Q16539). The experiment in a line: Kinase selectivity panel. Format: biochemical. The following applies: read-out: percent of control activity of P38 MAP kinase 1. As to the method:
as §1

SMILES strings stand for the structures.

Sequence of PDK1 (O15530 whole entry): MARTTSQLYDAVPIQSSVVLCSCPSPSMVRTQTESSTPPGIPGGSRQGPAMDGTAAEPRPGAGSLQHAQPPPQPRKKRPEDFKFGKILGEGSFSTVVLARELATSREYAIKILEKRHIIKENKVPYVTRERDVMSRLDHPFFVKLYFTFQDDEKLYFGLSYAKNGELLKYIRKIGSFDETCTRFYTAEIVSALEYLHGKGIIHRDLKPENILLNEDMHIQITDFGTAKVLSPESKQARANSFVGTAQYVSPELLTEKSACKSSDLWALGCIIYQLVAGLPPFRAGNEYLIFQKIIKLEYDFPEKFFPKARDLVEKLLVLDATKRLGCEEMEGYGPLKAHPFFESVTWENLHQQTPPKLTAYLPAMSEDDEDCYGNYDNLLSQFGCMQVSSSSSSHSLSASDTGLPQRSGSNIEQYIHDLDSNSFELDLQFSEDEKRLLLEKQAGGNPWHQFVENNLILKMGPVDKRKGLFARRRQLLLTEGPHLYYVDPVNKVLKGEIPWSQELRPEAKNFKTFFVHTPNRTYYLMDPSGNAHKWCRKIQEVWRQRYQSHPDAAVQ
Sequence of P38 MAP kinase 1 (Q16539 whole entry): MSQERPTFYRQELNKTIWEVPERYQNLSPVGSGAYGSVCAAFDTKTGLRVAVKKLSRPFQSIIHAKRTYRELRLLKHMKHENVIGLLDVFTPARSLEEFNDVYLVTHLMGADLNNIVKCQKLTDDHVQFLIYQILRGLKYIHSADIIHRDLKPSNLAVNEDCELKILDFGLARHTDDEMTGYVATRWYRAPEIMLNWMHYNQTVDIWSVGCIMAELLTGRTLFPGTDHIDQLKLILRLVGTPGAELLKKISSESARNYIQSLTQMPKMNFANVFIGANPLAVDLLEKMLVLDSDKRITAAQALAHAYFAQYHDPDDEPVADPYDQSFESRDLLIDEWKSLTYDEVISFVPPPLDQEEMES
Sequence of Aurora-A (O14965 whole entry): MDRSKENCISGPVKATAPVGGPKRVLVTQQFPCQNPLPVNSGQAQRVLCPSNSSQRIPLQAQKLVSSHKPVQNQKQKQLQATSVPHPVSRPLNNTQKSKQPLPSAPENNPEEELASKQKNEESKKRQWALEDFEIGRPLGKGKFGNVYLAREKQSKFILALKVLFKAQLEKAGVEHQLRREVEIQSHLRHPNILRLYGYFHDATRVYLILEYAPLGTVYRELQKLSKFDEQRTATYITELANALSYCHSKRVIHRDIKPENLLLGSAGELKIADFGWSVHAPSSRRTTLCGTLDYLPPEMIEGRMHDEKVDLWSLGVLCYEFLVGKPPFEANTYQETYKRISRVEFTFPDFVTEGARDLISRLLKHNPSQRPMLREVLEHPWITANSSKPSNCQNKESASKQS
Sequence of Fyn (P06241 whole entry, species assumed): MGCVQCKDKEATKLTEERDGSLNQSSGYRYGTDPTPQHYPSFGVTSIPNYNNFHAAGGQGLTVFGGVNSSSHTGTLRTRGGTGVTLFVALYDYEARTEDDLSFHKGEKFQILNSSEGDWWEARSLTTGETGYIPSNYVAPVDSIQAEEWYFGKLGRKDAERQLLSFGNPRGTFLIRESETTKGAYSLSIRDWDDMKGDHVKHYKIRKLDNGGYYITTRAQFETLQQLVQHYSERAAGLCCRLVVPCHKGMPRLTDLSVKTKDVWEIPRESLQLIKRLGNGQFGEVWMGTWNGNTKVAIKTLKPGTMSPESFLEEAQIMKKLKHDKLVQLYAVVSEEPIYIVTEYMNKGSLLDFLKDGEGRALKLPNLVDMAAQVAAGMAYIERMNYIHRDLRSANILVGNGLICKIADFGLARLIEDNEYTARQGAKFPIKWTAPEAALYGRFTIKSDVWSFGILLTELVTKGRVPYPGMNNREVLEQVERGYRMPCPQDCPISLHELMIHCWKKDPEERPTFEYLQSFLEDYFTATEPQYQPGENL
Sequence of P38 MAP kinase 2 (Q15759 whole entry): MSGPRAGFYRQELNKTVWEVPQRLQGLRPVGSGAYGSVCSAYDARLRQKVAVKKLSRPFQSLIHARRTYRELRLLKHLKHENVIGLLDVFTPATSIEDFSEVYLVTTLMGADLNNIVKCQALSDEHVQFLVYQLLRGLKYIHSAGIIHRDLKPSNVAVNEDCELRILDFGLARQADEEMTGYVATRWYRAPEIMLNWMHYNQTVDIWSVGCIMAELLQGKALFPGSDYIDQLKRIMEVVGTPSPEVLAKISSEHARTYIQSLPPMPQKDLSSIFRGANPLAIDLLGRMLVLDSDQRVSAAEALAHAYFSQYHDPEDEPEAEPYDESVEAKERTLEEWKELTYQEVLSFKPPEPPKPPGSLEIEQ
Sequence of cRaf (P04049 whole entry, species assumed): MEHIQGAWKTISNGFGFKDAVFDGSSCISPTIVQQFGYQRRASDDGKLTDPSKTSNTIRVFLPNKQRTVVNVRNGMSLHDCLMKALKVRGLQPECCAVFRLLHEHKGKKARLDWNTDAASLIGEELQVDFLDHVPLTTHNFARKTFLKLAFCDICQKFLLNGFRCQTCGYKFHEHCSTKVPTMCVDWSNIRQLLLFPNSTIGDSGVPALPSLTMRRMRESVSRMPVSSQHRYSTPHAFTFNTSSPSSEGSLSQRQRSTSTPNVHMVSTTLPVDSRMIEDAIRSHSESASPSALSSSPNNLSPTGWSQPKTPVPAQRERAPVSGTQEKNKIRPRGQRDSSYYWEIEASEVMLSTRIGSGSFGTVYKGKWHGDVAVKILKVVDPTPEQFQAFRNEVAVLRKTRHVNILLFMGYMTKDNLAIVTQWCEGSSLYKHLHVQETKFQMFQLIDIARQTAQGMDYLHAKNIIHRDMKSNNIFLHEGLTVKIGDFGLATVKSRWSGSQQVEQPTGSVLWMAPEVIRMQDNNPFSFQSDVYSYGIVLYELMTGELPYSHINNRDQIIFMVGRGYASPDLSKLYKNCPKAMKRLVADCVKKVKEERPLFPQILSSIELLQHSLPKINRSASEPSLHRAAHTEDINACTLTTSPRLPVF
Sequence of CHK1 (O14757 whole entry, species assumed): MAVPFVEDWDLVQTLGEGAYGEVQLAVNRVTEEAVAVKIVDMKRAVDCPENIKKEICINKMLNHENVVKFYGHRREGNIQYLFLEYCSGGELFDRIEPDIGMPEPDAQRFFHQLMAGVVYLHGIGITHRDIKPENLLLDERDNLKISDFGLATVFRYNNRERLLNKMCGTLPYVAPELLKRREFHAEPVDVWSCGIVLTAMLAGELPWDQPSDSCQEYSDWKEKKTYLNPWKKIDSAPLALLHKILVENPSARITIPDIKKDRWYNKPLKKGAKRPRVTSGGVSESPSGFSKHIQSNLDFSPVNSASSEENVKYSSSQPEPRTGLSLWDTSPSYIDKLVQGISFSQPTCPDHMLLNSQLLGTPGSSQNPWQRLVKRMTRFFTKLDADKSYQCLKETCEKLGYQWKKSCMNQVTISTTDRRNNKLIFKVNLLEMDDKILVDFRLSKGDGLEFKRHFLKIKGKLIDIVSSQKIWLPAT
Sequence of PKBγ (Q9Y243 whole entry, species assumed): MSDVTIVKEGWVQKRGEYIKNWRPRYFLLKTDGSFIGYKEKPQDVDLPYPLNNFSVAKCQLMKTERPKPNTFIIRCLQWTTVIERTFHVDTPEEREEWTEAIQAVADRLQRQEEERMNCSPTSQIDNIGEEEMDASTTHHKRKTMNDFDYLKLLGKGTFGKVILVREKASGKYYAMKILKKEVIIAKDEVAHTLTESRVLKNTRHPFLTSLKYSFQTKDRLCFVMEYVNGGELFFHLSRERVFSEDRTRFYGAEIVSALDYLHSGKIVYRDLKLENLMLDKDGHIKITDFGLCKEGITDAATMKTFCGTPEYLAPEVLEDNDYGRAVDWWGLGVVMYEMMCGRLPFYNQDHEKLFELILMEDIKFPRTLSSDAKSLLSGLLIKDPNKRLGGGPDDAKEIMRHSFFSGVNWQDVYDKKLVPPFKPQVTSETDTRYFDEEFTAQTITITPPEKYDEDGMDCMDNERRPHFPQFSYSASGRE
Sequence of PKBα (P31749 whole entry, species assumed): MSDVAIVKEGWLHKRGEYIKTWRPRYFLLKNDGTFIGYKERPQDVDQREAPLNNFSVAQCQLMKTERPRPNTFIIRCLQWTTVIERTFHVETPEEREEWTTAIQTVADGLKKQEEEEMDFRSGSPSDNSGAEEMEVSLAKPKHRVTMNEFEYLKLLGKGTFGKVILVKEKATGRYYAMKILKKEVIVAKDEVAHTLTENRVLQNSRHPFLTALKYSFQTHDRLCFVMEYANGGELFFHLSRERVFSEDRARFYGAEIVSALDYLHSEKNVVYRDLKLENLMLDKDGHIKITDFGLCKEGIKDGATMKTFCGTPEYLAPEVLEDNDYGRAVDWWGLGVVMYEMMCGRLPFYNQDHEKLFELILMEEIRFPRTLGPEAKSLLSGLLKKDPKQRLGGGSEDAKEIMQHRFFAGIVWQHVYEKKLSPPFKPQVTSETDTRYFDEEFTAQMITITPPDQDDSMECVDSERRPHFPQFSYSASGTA

Take `CCCC(=O)Oc1ccc(C=CC(=O)Nc2nc(-c3ccc(Cl)cc3)cs2)cc1OC` [Compound 8, Butyric acid 4-{2-[4-(4-chloro-phenyl)-thiazol-2-ylcarbamoyl]-vinyl}-2-methoxy-phenyl ester]: the “increase in colonic MPO activity” value with C57BL/6 mice is listed as “markedly attenuated”. In addition, the colon length result in the experiment with C57BL/6 mice (Day 6) was “intermediate length”. Besides, the “Disease Activity Index (DAI)” value with C57BL/6 mice (Days 4-6) was “reduced the intensity of the IBD manifestations”.
As for `Clc1ccc(-c2csc(NCc3ccccc3)n2)cc1` [Compound 73, Benzyl-[4-(4-chloro-phenyl)-thiazol-2-yl]-amine], the remaining activity at 50 µM at EFGR is 99 ± 9%; at Abl, 100 ± 1%; at Ca^2+/calmodulin PK IV, 113 ± 3%; at CDK2/cyclinE, 102 ± 7%; on IKKα, 152 ± 7%; at Aurora-A, 100%. The remaining activity at 50 µM turned out to be 101% on P38 MAP kinase 2; 102% at Fyn; 100 ± 10% at PKBγ; 100% on CDK1/cyclinB; 124% at CHK1; 119 ± 6% on cSrc. Moreover, the remaining activity at 50 µM at cRaf was 104 ± 1%; on Protein kinase C α, 92 ± 1%; on Protein kinase C ε, 91 ± 2%; at PKBα, 102 ± 1%; at PDK1 it was 98 ± 6%; at PKA, 94 ± 4%. For the same compound, on P38 MAP kinase 1, the remaining activity at 50 µM turned out to be 88 ± 1%. Also, the “percent of control activity of MEK kinase 1” value in the experiment on MEK kinase 1 is on record as 104 ± 3%.
